According to ChEMBL document CHEMBL1156091, “Stereoselective total synthesis of a potent natural antifungal compound (6S)-5,6,dihydro-6-[(2R)-2-hydroxy-6-phenyl hexyl]-2H-pyran-2-one” (2009):

Tested on: Cladosporium cucumerinum
Experiment: Antifungal activity against phytopathogenic Cladosporium cucumerinum by bioautographic TLC assay
Assay type: functional

MIC [µg] | Structure (SMILES)
1 | O=C1C=CC[C@@H](C[C@H](O)CCCCc2ccccc2)O1
1 | Clc1ccc(COC(Cn2ccnc2)c2ccc(Cl)cc2Cl)c(Cl)c1 (configuration not stated) [MICONAZOLE]
